Patent US20200289450A1, “METHODS OF REDUCING OR PREVENTING OXIDATIVE MODIFICATION OF MEMBRANE POLYUNSATURATED FATTY ACIDS” (Amarin Pharmaceuticals Ireland Limited, priority 2013, published 2020)

Tests used:
[1] = Glucose-induced membrane lipid peroxidation (LOOH), CHOD-iodide assay in MLVs (Example 4)
Experimental: Vitamin E (α-tocopherol) was also purchased from Sigma-Aldrich and prepared in ethanol at 1.0 mM (ϵ=3.06×10^4 M^−1 cm^−1 at 294 nm) just prior to experimental use. […] All test compounds were further diluted in ethanol or aqueous buffer as needed. Glucose was prepared in saline buffer (0.5 mM HEPES, 154 mM NaCl, pH 7.3) at 11.0 mM (200 mg/dL). CHOD-iodide color reagent (stock) was prepared, with slight modification, as described by from El-Saadani et al. (J. […] Prior to experimental use, the CHOD reagent was activated by adding 24 μM ethylenediaminetetraacetic acid (EDTA), 20 μM butylated hydroxytoluene (BHT), and 0.2% Triton X-100. Multilamellar vesicles (MLVs) were prepared as binary mixtures of DLPC (1.0 or 2.5 mg total phospholipid per sample) and cholesterol at a fixed cholesterol-to-phospholipid (C/P) mole ratio of 0.6:1. […] Aliquot volume was reduced with each successive time point to ensure that spectrophotometric readings were within the optimal adsorption range. […] Sample absorbances were then measured against a CHOD blank at 365 nm using a Beckman DU-640 spectrophotometer. The CHOD colorimetric assay is based on the oxidation of iodide (I^−) by lipid hydroperoxide (LOOH) to form triiodide (I3^−), the quantity of which is directly proportional to the amount of LOOH present in the lipid sample. […]

[2] = Glucose- and peroxidation-induced cholesterol domain formation, small angle x-ray diffraction (Example 4); type: physicochemical
Experimental: The membrane structural effects of glucose and the various compounds examined in this study were measured at 0, 72, and 96 hour intervals. Membrane lipid vesicles were oriented for x-ray diffraction analysis as described by others (e.g., Herbette et al., Biophys. J., vol. 20(2), pages 245-272 (1977)). Briefly, a 100 μL aliquot (containing 250 μg MLV) was aspirated from each sample and transferred to a Lucite® sedimentation cell fitted with an aluminum foil substrate upon which a given sample could be collected by centrifugation. Samples were then loaded into a Sorvall AH-629 swinging bucket rotor (DuPont Corp., Wilmington, Del.) and centrifuged at 35,000 g, 5° C., for 90 min.
After centrifugal orientation, sample supernatants were aspirated and aluminum foil substrates, each supporting a single membrane pellet, were removed from the sedimentation cells. Sample pellets were dried for 5-10 min at ambient conditions, mounted onto curved glass supports, and placed in hermetically-sealed, brass or glass containers (for immediate analysis or temporary storage, respectively). All x-ray diffraction experiments were conducted at 20° C., 74% relative humidity. The latter was established by exposing membrane samples to saturated solutions of L-(+) […] (K2C4H4O6.½H2O). Samples were incubated at these conditions for at least 1 hour prior to experimental analysis.
Oriented membrane samples were aligned at grazing incidence with respect to a collimated, mono-chromatic CuKα x-ray beam (Kα1 and Kα2 unresolved; λ=1.54 Å) produced by a Rigaku Rotaflex RU-200, high-brilliance microfocus generator (Rigaku-MSC, The Woodlands, Tex.) as previously described (Mason et al, Biophys. J., vol. 55(4), pages 769-778 (1989)). […]
The d-space for any given membrane multibilayer is a measurement of the unit cell periodicity of the membrane lipid bilayer (e.g., the distance from the center of one lipid bilayer to the next including surface hydration), and is calculated from Bragg's Law, hλ=2dsinθ, where h is the diffraction order, λ is the wavelength of the x-ray radiation (1.54 Å), d is the membrane lipid bilayer unit cell periodicity, and θ is the Bragg angle equal to one-half the angle between the incident beam and scattered beam.
The presence of cholesterol domains in a given membrane sample results in the production of distinct Bragg (diffraction) peaks having singular periodicity values of 34 and 17 Å (typically referred to as first- and second-order cholesterol domain peaks). Under the specific temperature and relative humidity conditions established for these experiments, the second-order, 17 Å cholesterol domain peak was well-delineated from other, neighboring cholesterol and phospholipid diffraction peaks and was thus used to quantitate relative cholesterol domain peak intensity. […]

[3] = system: human sdLDL; test: Copper-initiated sdLDL oxidation, TBARS (Example 6)
Experimental: (§1) An experiment to study the antioxidant effect of EPA in small dense LDL (“sdLDL”) was performed. EPA was purchased from Sigma-Aldrich (Saint Louis, Mo.) and solubilized in ethanol to 1 mM under nitrogen atmosphere. Vitamin E (α-tocopherol) was purchased from Sigma-Aldrich and prepared in ethanol at 1.0 mM (ϵ=3.06×10^4 M^−1 cm^−1 at 294 nm) just prior to experimental use. All test compounds were further diluted in ethanol or aqueous buffer as needed.
(§2) Venous blood was collected from healthy volunteers into vacutainer tubes containing sodium EDTA. Plasma was separated by centrifugation at 3000 g for 25 min at 4° C. and adjusted to a density of 1.020 g/mL with KBr. […] Sample TBARS concentrations were determined spectrophotometrically by measuring sample absorbances against a standard curve derived from the hydrolysis of 1,1,3,3-tetramethoxypropane.
(§3) Data are presented as mean±S.D. for (N) separate samples or treatment groups. Differences between groups were analyzed using the two-tailed, Student's t-test (for comparisons between only two groups) or ANOVA followed by Dunnett or Student-Newman-Keuls multiple comparisons post-hoc analysis (for comparisons between three or more groups). […]

[4] = system: human LDL (unfractionated); test: Copper-initiated oxidation of unfractionated LDL, TBARS (Example 6); details: 1.0 μM to 10.0 μM
Experimental: as §1, §2, §3

[5] = target: T1, HMG-CoA reductase (Homo sapiens, UniProt P04035); details: metabolized by hepatic cytochrome P450; cited from earlier work
T1 sequence (P04035 1-888): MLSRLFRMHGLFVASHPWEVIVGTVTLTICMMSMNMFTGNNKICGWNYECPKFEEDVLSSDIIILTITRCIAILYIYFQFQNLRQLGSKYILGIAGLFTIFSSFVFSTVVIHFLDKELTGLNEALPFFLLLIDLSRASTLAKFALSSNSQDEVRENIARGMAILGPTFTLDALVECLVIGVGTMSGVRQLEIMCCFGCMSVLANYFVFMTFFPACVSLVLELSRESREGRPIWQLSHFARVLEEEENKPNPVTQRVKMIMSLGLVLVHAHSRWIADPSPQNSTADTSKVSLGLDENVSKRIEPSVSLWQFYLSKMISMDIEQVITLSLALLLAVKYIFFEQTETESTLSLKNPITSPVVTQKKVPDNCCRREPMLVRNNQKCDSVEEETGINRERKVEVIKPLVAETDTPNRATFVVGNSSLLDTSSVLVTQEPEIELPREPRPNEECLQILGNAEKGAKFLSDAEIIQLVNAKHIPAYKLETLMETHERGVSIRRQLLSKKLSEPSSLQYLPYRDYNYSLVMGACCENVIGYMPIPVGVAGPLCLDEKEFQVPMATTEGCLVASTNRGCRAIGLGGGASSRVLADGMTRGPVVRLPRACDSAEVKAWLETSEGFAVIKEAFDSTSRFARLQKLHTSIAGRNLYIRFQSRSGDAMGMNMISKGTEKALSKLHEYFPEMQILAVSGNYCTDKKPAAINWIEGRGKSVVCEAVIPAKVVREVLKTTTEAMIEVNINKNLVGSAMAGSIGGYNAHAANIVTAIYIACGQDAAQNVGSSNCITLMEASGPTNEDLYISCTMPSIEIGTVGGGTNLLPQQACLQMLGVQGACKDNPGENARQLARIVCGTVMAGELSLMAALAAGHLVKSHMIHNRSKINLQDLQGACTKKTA

[6] = cited from earlier work
[7] = system: human low density lipoprotein and model liposomes; details: cited from earlier work

For Cc1c(C)c2c(c(C)c1O)CC[C@@](C)(CCC[C@H](C)CCC[C@H](C)CCCC(C)C)O2 [vitamin E, α-tocopherol], the “effect on LOOH formation / lipid peroxidation (FIG. 3)” value ([1]; 72- and 96-hour time points, glucose, 1:30 drug-to-phospholipid mole ratio) was “no significant effect”, the “effect on membrane structure compared to control samples” value ([2]; 0 hours (start of experiment), glucose 200 mg/dL, 1:30 drug-to-phospholipid mole ratio) was “no appreciable effect” and the “cholesterol crystalline domain peaks (d-space 34 Å)” value ([2]; 72 hours oxidative conditions, glucose 200 mg/dL, 1:30) was “observed”. For the same compound, the cholesterol domain peaks ([2]; 96 hours oxidative conditions, glucose 200 mg/dL, 1:30) was “disproportionately greater”, the “effect on cholesterol domain formation compared to control” value ([2]; any experimental time point (FIG. 5)) was “no significant effect” and the sdLDL oxidation ([3]; 1.0 μM to 10.0 μM) was “did not inhibit sdLDL oxidation except at the highest concentration”. For the same compound, the “reduction of TBARS levels compared to vehicle-treated controls” value ([3]; sdLDL, 10.0 μM, 2 hr after 10 μM CuSO4) was 26% and the LDL oxidation [4] was “did not inhibit LDL oxidation at any concentration”.
For CC(C)c1c(C(=O)Nc2ccccc2)c(-c2ccccc2)c(-c2ccc(F)cc2)n1CC[C@@H](O)C[C@@H](O)CC(=O)O [atorvastatin], the “share of circulating HMG-CoA reductase inhibitory activity accounted for by active metabolites” value [5] is given as “approximately 70%”, the “circulating levels of chlorotyrosine” value ([6]; 10 mg, 12 weeks) is given as “significantly reduce” and the “circulating levels of dityrosine” value ([6]; 10 mg, 12 weeks) is given as “significantly reduce”. The “circulating levels of nitrotyrosine” value ([6]; 10 mg, 12 weeks) was “significantly reduce” and the “levels of oxidized lipids associated with all apoB100-containing lipid particles” value ([6]; 80 mg, 16 weeks, 2,341 patients) was “significant reduction”.
For CC(C)c1c(C(=O)Nc2ccccc2O)c(-c2ccccc2)c(-c2ccc(F)cc2)n1CC[C@@H](O)C[C@@H](O)CC(=O)O [ATM, Atorvastatin ortho- (o-) hydroxy (active) metabolite], the “antioxidant effects (LOOH formation)” value ([1]; each at 1.0 μM, glucose 200 mg/dL, 96 hours) is given as “separate and potent antioxidant effects” and the antioxidant properties [7] is given as “potent antioxidant properties”.
